{
  "source": "patent US5491229A",
  "about": "“Rapamycin derivative” (SmithKline Beecham PLC, priority 1991, dated 1996)",
  "key": {"[1]": {"system": "Spleen cells from BDF1 female mice", "assay": "Mitogenesis Assay for Immunosuppressive Activity (concanavalin A-stimulated spleen cells, 3H-thymidine)", "assay_type": "cell-based", "conditions": "Concanavalin A (5 μg/ml), 72 hours", "description": "Spleen cells from BDF1 female mice were established in RPMI with 10% fetal calf serum at 5×10^6 /ml. One hundred […] aliquots of this suspension (5×10^5 cells) were dispensed into 96-well round-bottomed microtiter plates (Linbro, Flow Laboratories). Concanavalin A (5 μg/ml) was added as the mitogenic stimulus, and the final volume in the microtiter wells was adjusted to 200 μL with RPMI. Cell cultures were incubated for 72 hours at 37 degrees C. in a 5% CO2 atmosphere and pulsed with 0.5μ Ci ^3 H-thymidine (specific activity […]) for the last 18 hour culture. The cells were harvested on an automated multiple sample harvester and cell-associated radioactivity counted in a Beckman liquid scintillation counter. The results are expressed as the mean values derived from quadruplicate measurements. Cell viability was determined by trypan blue exclusion after 72 hours of incubation. Compounds to be tested were added to the microtiter plates at the appropriate dilutions prior to the addition of cells."}, "[2]": {"system": "Saccharomyces cerevisiae", "assay": "Assay for Antifungal Activity (yeast agar well zone of inhibition)", "assay_type": "cell-based", "conditions": "48 hours", "description": "Yeast organisms (Saccharomyces cerevisiae) in logarithmic growth were plated on complete agar medium (YPD). The compound was dissolved in an appropriate aqueous or organic solvent and placed in wells punched in the agar. Plates were incubated for 48 hours and zones of inhibition were measured.\nIC12^(nM) refers to the concentration of drug in the antifungal assay which produces a 12 mm zone of inhibition."}},
  "data": [
    {"compound": "CO[C@H]1C[C@@H]2CC[C@@H](C)C(O)(CC(=O)N3CCCC[C@H]3C(=O)O[C@H]([C@H](C)C[C@@H]3CC[C@@H](O)[C@H](OC)C3)CC(=O)[C@H](C)/C=C(\\C)[C@@H](O)[C@@H](OC)C(=O)[C@H](C)C[C@H](C)/C=C/C=C/C=C/1C)O2", "note": "[14-methylene rapamycin]", "values": [
      {"measurement": "immunosuppressive / immunomodulatory activity (in words)", "setting": "[1]", "result": "has both antifungal and immunomodulatory activity"},
      {"measurement": "IC50", "setting": "[1]; Mus musculus, 37 degrees C., 3H-thymidine", "result": 15, "unit": "nM"},
      {"measurement": "IC (12 mm zone of inhibition)", "setting": "[2]; Saccharomyces cerevisiae on YPD agar, read-out: Yeast IC12 (concentration of drug in the antifungal assay which produces a 12 mm zone of inhibition)", "result": 0.013, "unit": "µM"},
      {"measurement": "antifungal activity (in words)", "setting": "[2]; Saccharomyces cerevisiae", "result": "has both antifungal and immunomodulatory activity"}
    ]}
  ]
}
